Results from PubChem BioAssay AID2060501 (Molecular Pharmacology Branch, DTP, NCI, 2025).

System: 282377-053-R-J1-PDC complex spheroids, viability
Assay: Anticancer human tumor 282377-053-R-J1-PDC patient-derived colon adenocarcinoma cell line growth inhibition [GQUAD]
Settings: for IC50: curve of first compound; for viability, T/C: stronger effect = lower value
Outline: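 Multi-cell-type spheroids of tumor cells with HUVEC and mesenchymal stem cells, treated with drug combinations. Concentrations descend in half-log steps from near clinical Cmax, or from 10 microM where Cmax is unknown; viability read-out.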

[1] = second compound 0.0316 µM, first compound 0.000999 µM
[2] = second compound 0.0316 µM, first compound 0.00316 µM
[3] = second compound 0.0316 µM, first compound 0.00999 µM
[4] = second compound 0.0316 µM, first compound 0.0316 µM
[5] = second compound 0.0316 µM, first compound 0.0999 µM
[6] = second compound 0.0316 µM, first compound 0.316 µM
[7] = second compound 0.1 µM, first compound 0.000999 µM
[8] = second compound 0.1 µM, first compound 0.00316 µM
[9] = second compound 0.1 µM, first compound 0.00999 µM
[10] = second compound 0.1 µM, first compound 0.0316 µM
[11] = second compound 0.1 µM, first compound 0.0999 µM
[12] = second compound 0.1 µM, first compound 0.316 µM
[13] = second compound 0.316 µM, first compound 0.000999 µM
[14] = second compound 0.316 µM, first compound 0.00316 µM
[15] = second compound 0.316 µM, first compound 0.00999 µM
[16] = second compound 0.316 µM, first compound 0.0316 µM
[17] = second compound 0.316 µM, first compound 0.0999 µM
[18] = second compound 0.316 µM, first compound 0.316 µM
[19] = second compound 1 µM, first compound 0.000999 µM
[20] = second compound 1 µM, first compound 0.00316 µM
[21] = second compound 1 µM, first compound 0.00999 µM
[22] = second compound 1 µM, first compound 0.0316 µM
[23] = second compound 1 µM, first compound 0.0999 µM
[24] = second compound 1 µM, first compound 0.316 µM
[25] = second compound 3.16 µM, first compound 0.000999 µM
[26] = second compound 3.16 µM, first compound 0.00316 µM
[27] = second compound 3.16 µM, first compound 0.00999 µM
[28] = second compound 3.16 µM, first compound 0.0316 µM
[29] = second compound 3.16 µM, first compound 0.0999 µM
[30] = second compound 3.16 µM, first compound 0.316 µM
[31] = second compound 10 µM, first compound 0.000999 µM
[32] = second compound 10 µM, first compound 0.00316 µM
[33] = second compound 10 µM, first compound 0.00999 µM
[34] = second compound 10 µM, first compound 0.0316 µM
[35] = second compound 10 µM, first compound 0.0999 µM
[36] = second compound 10 µM, first compound 0.316 µM
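Also: spheroids exposed to compounds for 7 days before readout.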
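For viability, T/C in this document: percent of vehicle DMSO control viability with 100% = untreated-like growth.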

Cn1ncnc1[C@H]1c2n[nH]c(=O)c3cc(F)cc(c23)N[C@@H]1c1ccc(F)cc1 + Cc1cnc(CNC(=O)c2c(=O)c3ccc(N4CCCN(C)CC4)nc3n3c2sc2ccccc23)cn1
IC50 (second compound 0.0316 µM): > 316 nM
IC50 (second compound 0.1 µM): > 316 nM
IC50 (second compound 0.316 µM): > 316 nM
IC50 (second compound 1 µM): 285 nM
IC50 (second compound 3.16 µM): 32.7 nM
IC50 (second compound 10 µM): < 0.999 nM
viability, T/C [1]: 111%
viability, T/C [2]: 87.7%
viability, T/C [3]: 104%
viability, T/C [4]: 107%
viability, T/C [5]: 95.9%
viability, T/C [6]: 102%
viability, T/C [7]: 109%
viability, T/C [8]: 101%
viability, T/C [9]: 98.7%
viability, T/C [10]: 94%
viability, T/C [11]: 115%
viability, T/C [12]: 116%
viability, T/C [13]: 86.1%
viability, T/C [14]: 84.1%
viability, T/C [15]: 88.4%
viability, T/C [16]: 93.2%
viability, T/C [17]: 79%
viability, T/C [18]: 71.9%
viability, T/C [19]: 65.7%
viability, T/C [20]: 66.1%
viability, T/C [21]: 52.5%
viability, T/C [22]: 62.5%
viability, T/C [23]: 51.5%
viability, T/C [24]: 49.4%
viability, T/C [25]: 56.6%
viability, T/C [26]: 47.2%
viability, T/C [27]: 51.5%
viability, T/C [28]: 49.5%
viability, T/C [29]: 52.3%
viability, T/C [30]: 46.2%
viability, T/C [31]: 43.3%
viability, T/C [32]: 44.1%
viability, T/C [33]: 52.4%
viability, T/C [34]: 45.1%
viability, T/C [35]: 51%
viability, T/C [36]: 46.7%

Cc1[nH]c2ccccc2c1CCNCc1ccc(/C=C/C(=O)NO)cc1 + CN(C)c1ccc(Nc2c3ccc(NC(=O)CCN4CCCC4)cc3nc3cc(NC(=O)CCN4CCCC4)ccc23)cc1
IC50 (second compound 0.0316 µM): 189 nM
IC50 (second compound 0.1 µM): 189 nM
IC50 (second compound 0.316 µM): 179 nM
IC50 (second compound 1 µM): 189 nM
IC50 (second compound 3.16 µM): 173 nM
IC50 (second compound 10 µM): 147 nM
viability, T/C [1]: 106%
viability, T/C [2]: 91.1%
viability, T/C [3]: 109%
viability, T/C [4]: 110%
viability, T/C [5]: 106%
viability, T/C [6]: 6.18%
viability, T/C [7]: 97.3%
viability, T/C [8]: 108%
viability, T/C [9]: 114%
viability, T/C [10]: 89.3%
viability, T/C [11]: 105%
viability, T/C [12]: 7.41%
viability, T/C [13]: 91.8%
viability, T/C [14]: 86.4%
viability, T/C [15]: 91.4%
viability, T/C [16]: 116%
viability, T/C [17]: 99.6%
viability, T/C [18]: 3.85%
viability, T/C [19]: 90.2%
viability, T/C [20]: 98.5%
viability, T/C [21]: 108%
viability, T/C [22]: 121%
viability, T/C [23]: 103%
viability, T/C [24]: 7.41%
viability, T/C [25]: 92.9%
viability, T/C [26]: 95.1%
viability, T/C [27]: 101%
viability, T/C [28]: 123%
viability, T/C [29]: 89.8%
viability, T/C [30]: 6.57%
viability, T/C [31]: 78.5%
viability, T/C [32]: 103%
viability, T/C [33]: 94.6%
viability, T/C [34]: 92.8%
viability, T/C [35]: 73.6%
viability, T/C [36]: 3.92%

C#Cc1c(F)ccc2cc(O)cc(-c3ncc4c(N5CC6CCC(C5)N6)nc(OCC56CCCN5CC(F)C6)nc4c3F)c12 (stereo unspecified) + Cc1cnc(CNC(=O)c2c(=O)c3ccc(N4CCCN(C)CC4)nc3n3c2sc2ccccc23)cn1
IC50 (second compound 0.0316 µM): > 10000 nM
IC50 (second compound 0.1 µM): > 10000 nM
IC50 (second compound 0.316 µM): > 10000 nM
IC50 (second compound 1 µM): > 10000 nM
IC50 (second compound 3.16 µM): 4140 nM
IC50 (second compound 10 µM): < 31.6 nM
viability, T/C [4]: 102%
viability, T/C (second compound 0.0316 µM, first compound 0.1 µM): 87.4%
viability, T/C [6]: 122%
viability, T/C (second compound 0.0316 µM, first compound 1 µM): 83.2%
viability, T/C (second compound 0.0316 µM, first compound 3.16 µM): 100%
viability, T/C (second compound 0.0316 µM, first compound 10 µM): 94.7%
viability, T/C [10]: 127%
viability, T/C (second compound 0.1 µM, first compound 0.1 µM): 109%
viability, T/C [12]: 89.9%
viability, T/C (second compound 0.1 µM, first compound 1 µM): 86%
viability, T/C (second compound 0.1 µM, first compound 3.16 µM): 120%
viability, T/C (second compound 0.1 µM, first compound 10 µM): 93.5%
viability, T/C [16]: 86.5%
viability, T/C (second compound 0.316 µM, first compound 0.1 µM): 102%
viability, T/C [18]: 85.5%
viability, T/C (second compound 0.316 µM, first compound 1 µM): 77.1%
viability, T/C (second compound 0.316 µM, first compound 3.16 µM): 91.3%
viability, T/C (second compound 0.316 µM, first compound 10 µM): 83.9%
viability, T/C [22]: 64.3%
viability, T/C (second compound 1 µM, first compound 0.1 µM): 47.6%
viability, T/C [24]: 47.2%
viability, T/C (second compound 1 µM, first compound 1 µM): 59.2%
viability, T/C (second compound 1 µM, first compound 3.16 µM): 71.8%
viability, T/C (second compound 1 µM, first compound 10 µM): 58.5%
viability, T/C [28]: 46.5%
viability, T/C (second compound 3.16 µM, first compound 0.1 µM): 53%
viability, T/C [30]: 58.5%
viability, T/C (second compound 3.16 µM, first compound 1 µM): 52.2%
viability, T/C (second compound 3.16 µM, first compound 3.16 µM): 51.7%
viability, T/C (second compound 3.16 µM, first compound 10 µM): 44.1%
viability, T/C [34]: 36.8%
viability, T/C (second compound 10 µM, first compound 0.1 µM): 40.3%
viability, T/C [36]: 52.9%
viability, T/C (second compound 10 µM, first compound 1 µM): 46%
viability, T/C (second compound 10 µM, first compound 3.16 µM): 45.7%
viability, T/C (second compound 10 µM, first compound 10 µM): 37.8%
